Measurements: PMC5889877, “Ex Vivo Cardiotoxicity of Antineoplastic Casiopeinas Is Mediated through Energetic Dysfunction and Triggered Mitochondrial-Dependent Apoptosis” (Oxidative Medicine and Cellular Longevity, 2018)
Marks after values point to notes of the source that are not given here.

Assays:
cytochrome c = assay: Mitochondrial cytochrome c content by Western blot; design: species or system rat; conditions: heart mitochondria after 30 min perfusion at IC50
Description: (§1) To measure mitochondrial oxygen consumption, mitochondrial membrane potential, and Ca^2+ uptake, cytochrome c samples were prepared as follows: after perfusion, heart tissue from the left ventricle was minced and homogenized in cold mitochondrial isolation medium (in mM: 125 KCl, 1 EDTA, and 10 HEPES-HCl; pH 7.3). The mitochondrial fraction was obtained by differential centrifugation using the protease Nagarse, as previously described. Mitochondrial oxygen consumption was measured using a Clark-type oxygen electrode. The experiments were carried out in respiration assay medium containing 125 KCl, 10 HEPES-HCl, and 3 KH2PO4 (in mM) with pH 7.3. State 4 respiration was measured in the presence of 10 mM glutamate-malate, and state 3 respiration was evaluated after addition of 100 μM ADP. Maximal respiration was determined with 0.08 μM of carbonyl cyanide m-chlorophenyl hydrazine (CCCP). The mitochondrial membrane potential was measured by fluorometry using 5 μM safranine. Mitochondrial Ca^2+ uptake was determined with the metalochromic indicator, Arsenazo III, or calcium green 5N (5N-CG), using a medium containing 50 μM Arsenazo or 10 μM 5N-CG, 10 mM succinate plus rotenone (0.1 μg·ml^−1), 200 μM ADP, and 0.25 μg oligomycin A. Pulses of 10 nmol Ca^+2 were added every 3 minutes to reach a Ca^+2 release due to MPT opening. […]

[1] = test system: adult rat ventricular myocytes; assay: Cardiomyocyte viability, Alamar Blue; type: cell-based; conditions: 24 h treatment, read-out: LD50 (IC50) for cardiomyocyte viability
Text: (§2) Ventricular cardiomyocytes were obtained from male Wistar rats (250–300 g) by digestion with collagenase type II as previously described. Cells were washed in Tyrode solution (mM): 130 NaCl, 5.4 KCl, 0.4 NaH2PO4, 0.5 MgCl2, 25 HEPES, and 5 glucose with pH 7.4. After isolation, cells were cultivated at a density of 3.2 × 10^3 viable cells/well in 96-well plates pretreated with laminin in M-199 medium supplemented in mM with 5 taurine, 5 creatine, 2 L-carnitine, 2.5 sodium pyruvate, and penicillin-streptomycin at 100 U·ml^−1 and 100 μg·ml^−1, respectively, at 37°C, with 5% CO2 and 95% air. After incubation for three hours, varying concentrations of Cas were tested in triplicate, exposing the myocytes during 24 hours to each treatment. At the end of the incubation period, the cytotoxicity of Cas was measured using the Alamar Blue viability test (Life Technologies, Carlsbad, CA, USA). Release of cytoplasmic lactate dehydrogenase (LDH) was determined using CytoTox-ONE homogeneous membrane integrity kit (Promega Madison, WI, USA). The activity of caspases 3/7 and caspase 9 was measured in cell lysates using caspase-Glo 3/7 and caspase-Glo 9 test luminescent assay (Promega, Madison, WI, USA), respectively. The cardiomyoblast cell line H9c2 (ATCC CRL-1446) was maintained using standard procedures in DMEM supplemented with 10% fetal bovine serum prior to the oxidative stress experiments.

isolated cardiomyocytes = assay: LDH release (CytoTox-ONE); type: cell-based, rat; conditions: cardiomyocytes treated at IC50 (II-gly 2 μM, Doxo 10 μM)
Text: as §2

isolated rat hearts [2] = assay: Langendorff-perfused isolated rat heart: mechanical performance (RPP, HR, ±dP/dt, cardiac efficiency); conditions: for decrease of cardiac efficiency (CE): at IC50 for RPP; for +dP/dt × 1000 (contraction rate) / Cardiac efficiency / −dP/dt × 1000 (relaxation rate): hearts treated at the IC50; for t 0.5, time for half-inhibition of RPP / IC50: isolated rat heart; for t 0.5, time for half-inhibition of RPP / RPP reduction from baseline: 5 μM; for heart rate (HR) reduction: perfused at 5 μM; for IC50: read-out: IC50, half-maximal inhibitory concentration for RPP (heart contractile function), at 30 min perfusion
Description: (§3) Male Wistar rats (250–300 g) were injected with heparin (10^3 U·kg^−1, i.p.) 20 minutes prior to anesthesia with pentobarbital (100 mg·kg^−1, i.p.). When bilateral corneal reflex was absent, the heart was excised through an abdominal approach. Then, the ascending aorta was visualized and cut and the heart was placed in a cardioplegic solution. To avoid ischemia, the time between cutting the diaphragm to placing the heart in the solution was less than 60 seconds. The hearts were mounted in accordance with the Langendorff model and perfused at a constant flow (12 ml·min^−1) with a Krebs-Henseleit buffer as previously described. A latex balloon connected to a pressure transducer filled with saline solution was inserted into the left ventricle after establishing autonomous contraction. The pulmonary artery was cannulated and connected to a closed chamber using a Clark-type oxygen electrode (Yellow Springs Instruments, Yellow Springs, Ohio) to measure myocardial oxygen consumption (MVO2) in the coronary effluent. The rate of MVO2 was calculated as the difference between the concentration in the K-H buffer before (100%) and after perfusion. Data Trax software (WPI, Sarasota, Florida) was used for continuous recording of the heart rate (HR), left ventricular pressure (LVP), MVO2, and maximum positive and negative derivative of left ventricular pressure (±dP/dt). The baseline was established during 10–15 minutes of K-H perfusion. Each concentration of Cas or Doxo remained in the heart for 30 min. Hearts in the control group were perfused with K-H buffer during the whole experimental time. Rate pressure product (RPP = HR × LVP) and cardiac efficiency ([…]) were calculated as previously reported.

caspases 3 and 7 = assay: Caspase-Glo 3/7 activity in cell lysates; type: cell-based, rat; conditions: cardiomyocytes treated at IC50, compared to Doxo or the control
Text: as §2

isolated rat hearts [3] = assay: Myocardial oxygen consumption and energetic metabolites (ATP, PCr) in perfused hearts; conditions: Cas at IC50, Doxo 5 μM
Description: as §3
To measure the energetic metabolites ATP, phosphocreatine (PCr), and aconitase activity at the end of the perfusion protocols, samples were prepared as follows: the hearts were removed from the perfusion system by cutting the aorta and immediately flash-frozen with liquid N2, weighed, and stored at −80°C. Afterward, the hearts were homogenized in ice-cold buffer containing 250 mM sucrose, 10 mM HEPES, and 1 mM EDTA (pH 7.4). For enzymatic determination, aliquots of the homogenate were immediately frozen in liquid nitrogen and stored at −80°C. Quantification of ATP and PCr was carried out in a HPLC system with a dual-pump gradient (Waters Chromatography, Toronto, Canada) as previously described.

[4] = test system: mitochondria isolated from Cas-treated hearts; assay: Respiratory activity of mitochondria isolated from treated hearts (Clark-type oxygen electrode); design: species or system rat; conditions: for State 4 respiration: 10 mM glutamate-malate; for Respiratory control / State 3 respiration: malate/glutamate; for State 3 respiration: after 100 μM ADP
Description: (§4) To measure mitochondrial oxygen consumption, mitochondrial membrane potential, and Ca^2+ uptake, cytochrome c samples were prepared as follows: after perfusion, heart tissue from the left ventricle was minced and homogenized in cold mitochondrial isolation medium (in mM: 125 KCl, 1 EDTA, and 10 HEPES-HCl; pH 7.3). The mitochondrial fraction was obtained by differential centrifugation using the protease Nagarse, as previously described. Mitochondrial oxygen consumption was measured using a Clark-type oxygen electrode. The experiments were carried out in respiration assay medium containing 125 KCl, 10 HEPES-HCl, and 3 KH2PO4 (in mM) with pH 7.3. State 4 respiration was measured in the presence of 10 mM glutamate-malate, and state 3 respiration was evaluated after addition of 100 μM ADP. Maximal respiration was determined with 0.08 μM of carbonyl cyanide m-chlorophenyl hydrazine (CCCP). The mitochondrial membrane potential was measured by fluorometry using 5 μM safranine. Mitochondrial Ca^2+ uptake was determined with the metalochromic indicator, Arsenazo III, or calcium green 5N (5N-CG), using a medium containing 50 μM Arsenazo or 10 μM 5N-CG, 10 mM succinate plus rotenone (0.1 μg·ml^−1), 200 μM ADP, and 0.25 μg oligomycin A. Pulses of 10 nmol Ca^+2 were added every 3 minutes to reach a Ca^+2 release due to MPT opening. Mitochondrial cytochrome c quantification from Cas-treated hearts was performed using Western blot analysis as described previously. The blots were developed with Luminata crescendo substrate (Merck Millipore, Darmstadt, Germany) and detected with VisionWorks LS-UVP Chimio System (BioSpectrum 415 Imaging System, Cambridge, UK).

[5] = test system: mitochondrial permeability transition pore; assay: Mitochondrial Ca2+ retention capacity (MPT opening); design: species or system rat; conditions: for decrease of mitochondrial Ca2+ retention capacity: mitochondria from hearts treated at IC50, versus control
Description: as §4

caspase 9 = assay: Caspase-Glo 9 activity in cell lysates; type: cell-based, rat; conditions: cardiomyocytes treated at IC50
Text: as §2

H9c2 cells = assay: Mitochondrial anion superoxide production, MitoSOX flow cytometry; type: cell-based; conditions: H9c2 intact cells, 4 or 20 μM
Description: (§5) Thiol groups in the adenine nucleotide translocase were measured by eosin 5-maleimide interaction (EMA) with cysteine residues susceptible to oxidative stress or oxidizing agents [21] and followed by SDS/PAGE electrophoresis. […] Experiments for anion superoxide production were performed in intact cardiomyoblasts using the fluorescent probe MitoSOX (Molecular Probes) in the flow cytometer. H9c2 cells were loaded with MitoSOX during 15 min at 37°C with a cell density of 100,000 cells/mL (final concentration of MitoSOX 5 μM). Afterwards, the cells were subjected to Cas III-Ea treatment (4 or 20 μM); DOXO (5 μM) and Antimycin A (10 μg/mL) were used as positive controls. Finally, the cells were washed and analyzed on a FACSCanto II (BD Biosciences). FACS data was analyzed using FlowJo version 10.0 (Tree Star).

[6] = target: T1, adenine nucleotide translocase (Rattus norvegicus, UniProt Q05962); assay: Thiol groups of adenine nucleotide translocase (eosin 5-maleimide); conditions: mitochondria from hearts treated at IC50
T1 construct: adenine nucleotide translocase from mitochondria isolated from Cas-treated hearts; from tissue; host or cells: mitochondria isolated from Casiopeina-perfused rat hearts
T1 sequence (Q05962 1-298): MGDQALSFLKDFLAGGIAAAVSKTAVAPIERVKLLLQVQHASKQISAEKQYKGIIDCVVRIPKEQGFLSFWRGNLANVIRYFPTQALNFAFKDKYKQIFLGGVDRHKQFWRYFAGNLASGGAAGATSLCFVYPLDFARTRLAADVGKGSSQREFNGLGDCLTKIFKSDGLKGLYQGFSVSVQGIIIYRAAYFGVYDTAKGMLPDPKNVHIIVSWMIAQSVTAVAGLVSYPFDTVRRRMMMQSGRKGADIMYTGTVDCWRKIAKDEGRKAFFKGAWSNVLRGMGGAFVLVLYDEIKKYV
Description: as §5

[7] = test system: mitochondria isolated from treated hearts; assay: Mitochondrial membrane potential (safranine fluorometry); design: species or system rat
Description: as §1

[8] = mitochondria from treated hearts, CsA 0.5 μM added in vitro
[9] = mitochondria from CsA-III-Ea-treated hearts
[10] = mitochondria from hearts perfused with 10 μM III-Ea alone

Cc1ccnc2c1ccc1c(C)ccnc12.NCC(=O)[O-].O.O.O=[N+]([O-])[O-].[Cu+2] [Cas II-gly, Aqua(4,7-dimethyl-1,10-phenanthroline)(glycinate)copper(II)nitrate]
mitochondrial cytochrome c content (cytochrome c): reduction of cytochrome c
IC50 [1]: 2000 ± 500 nM
increase in LDH release compared to the control (isolated cardiomyocytes): 3.5 fold
decrease of cardiac efficiency (CE) (isolated rat hearts [2]): 23%
+dP/dt × 1000 (contraction rate) (isolated rat hearts [2]): 2.0 ± 0.13^∗ mmHg·s^−1
Cardiac efficiency (isolated rat hearts [2]): 4.8 ± 0.81 RPP · MVO2 ^−1
−dP/dt × 1000 (relaxation rate) (isolated rat hearts [2]): −0.7 ± 0.09^∗ mmHg·s^−1
t 0.5, time for half-inhibition of RPP (isolated rat hearts [2]): 29 ± 1.0^d min
heart rate (HR) reduction (isolated rat hearts [2]): not affected
IC50 (isolated rat hearts [2]): 5500 ± 500 nM
increase in activity of caspases 3 and 7 (caspases 3 and 7): ~ 4 fold
PCr/ATP ratio (isolated rat hearts [3]): augmented
State 4 respiration [4]: 13.0 ± 5.0 nmol O min^−1·mg^−1
Respiratory control [4]: 1.6 ± 0.3^∗
State 3 respiration [4]: 20.2 ± 7.3^∗ nmol O min^−1·mg^−1
decrease in state 3 respiration rate ([4]; versus control): 77%
reduction in maximal respiration ([4]; versus control): 82%
decrease of mitochondrial Ca2+ retention capacity [5]: 46.5%
protective effect of CsA on Ca2+ retention capacity [5, 8]: 60%
increase in caspase 9 activity (caspase 9): 1.7 fold

CC(=O)C=C(C)[O-].Cc1ccnc2c1ccc1c(C)ccnc12.O.O.O=[N+]([O-])[O-].[Cu+2] [Cas III-Ea, Aqua(4,7-dimethyl-1,10-phenanthroline)(acetylacetonate)copper(II)nitrate]
IC50 [1]: 2000 ± 400 nM
t 0.5 of decline of contractility (RPP) (isolated rat hearts [2]; 1 μM CsA perfused 10 min, then 10 μM III-Ea): 11.98 min
RPP reduction from baseline (isolated rat hearts [2]; at 20 min): 48%
RPP reduction from baseline (isolated rat hearts [2]; at 30 min): 97%
t 0.5 of decline of contractility (RPP) (isolated rat hearts [2]; 10 μM III-Ea alone): 9.65 min
decrease of cardiac efficiency (CE) (isolated rat hearts [2]): 47%
+dP/dt × 1000 (contraction rate) (isolated rat hearts [2]): 2.4 ± 0.23^∗ mmHg·s^−1
Cardiac efficiency (isolated rat hearts [2]): 3.3 ± 0.2^∗ RPP · MVO2 ^−1
−dP/dt × 1000 (relaxation rate) (isolated rat hearts [2]): −0.8 ± 0.13^∗ mmHg·s^−1
t 0.5, time for half-inhibition of RPP (isolated rat hearts [2]): 21 ± 5.0^d min
heart rate (HR) reduction (isolated rat hearts [2]): not affected
IC50 (isolated rat hearts [2]): 1300 ± 200 nM
change in anion superoxide production (MitoSOX) (H9c2 cells): no change
oxidation state of adenine nucleotide translocase thiol groups [6]: twofold increase
additional MVO2 to generate the same contractile force compared to control hearts (RPP/MVO2 ratio) (isolated rat hearts [3]): 1.47 fold
change in MVO2 (isolated rat hearts [3]): no changes
decrease in ATP content (isolated rat hearts [3]): 56%
mitochondrial membrane potential after addition of 10 μM Ca2+ [7, 9]: remained polarized
mitochondrial membrane potential after addition of 10 μM Ca2+ [7, 10]: depolarization
Max. respiration ([4]; 0.08 μM CCCP): 48.3 ± 5.7^∗ nmol O min^−1·mg^−1
State 4 respiration [4]: 24.5 ± 5.4 nmol O min^−1·mg^−1
Respiratory control [4]: 1.5 ± 0.2^∗
State 3 respiration [4]: 37.3 ± 2.7^∗ nmol O min^−1·mg^−1
more calcium tolerated than mitochondria from III-Ea hearts [5, 9]: 69%
calcium retention capacity ([5]; mitochondria from CsA-III-Ea-treated hearts (1 μM CsA before 10 μM III-Ea)): 226 ± 13 nmol/mg
calcium retention capacity [5, 10]: 133 ± 14 nmol/mg
decrease of mitochondrial Ca2+ retention capacity [5]: 50.5%
delay in the opening of MPT in the presence of CsA [5, 8]: 1.8 fold
